Data taken from ChEMBL document CHEMBL1221225, “A small molecule that directs differentiation of human ESCs into the pancreatic lineage” (Nat Chem Biol, 2009).
Activity calls are given as the source filed them. The calls are words filed in the database; no cut-off is given here.

Tests used:
[1] = Inhibition of PKC signaling in human HUES8 cells assessed as decrease in Pdx1-expressing cells at 4 uM after 4 days by immunocytochemistry in presence of ILV pregrown in medium with Wnt3a, activin A, FGF10, KAAD-cyclopamine and retinoic acid (reference value: 26.9+/-2.8%); assay type: cell-based
[2] = Induction of human HUES9 cell differentiation into pancreatic lineage assessed as increase in Pdx1-expression in cells pregrown with medium containing Wnt, activin, FGF10, KAAD-cyclopamine and retinoic acid after 1 day by Opera high content screening system; assay type: functional, cell-based; conditions: HUES9, 24 h
[3] = Effect on glucagon expression in human HUES8 insulin-producing cells at 300 nM after 4 days by immunocytochemistry (reference value: 75.2 +/- 9.1%); assay type: functional
HUES8 [4] = assay: Induction of human HUES8 cell differentiation into pancreatic progenitor cell assessed as increase in SOX9 mRNA expression at 300 nM after 4 days by RT-PCR analysis cells pregrown in medium containing Wnt, activin, FGF10, KAAD-cyclopamine and retinoic acid; assay type: functional, cell-based
Homo sapiens [5] = species on record: Homo sapiens; assay: Induction of human HUES8 differentiation into definitive endoderm assessed as expression of SOX17 at 300 nM after 3 days by immunocytochemistry in presence of Wnt3a and activin A; assay type: functional
[6] = Induction of human HUES8 differentiation into pancreatic lineage assessed as increase in DBA-positive exocrine cells at 300 nM after 4 days by RT-PCR (Rvb (DMSO) = 0%); assay type: functional
Mus musculus [7] = species on record: Mus musculus; assay: Induction of mouse AV3 Pdx1-expressing cell differentiation assessed as increase in Nkx6.1 expression at 300 nM after 6 days by immunohistochemistry pretreated with 1000 ng/ml recombinant mouse Nodal for 5 days; assay type: functional
Homo sapiens [8] = species on record: Homo sapiens; assay: Induction of Pdx1 expression in human HUES8 insulin-producing cells at 300 nM after 4 days by immunocytochemistry relative to control; assay type: functional
HUES2 = assay: Induction of human HUES2 cell differentiation into pancreatic progenitor cells assessed as increase in Pdx1-expression in cells pregrown with medium containing Wnt, activin, FGF10, KAAD-cyclopamine and retinoic acid at 300 nM after 4 days by Opera high content screening system relative to control; assay type: functional, cell-based
Intestine = assay: Induction of FABP2 expression in CD1 nude mouse intestine at 300 nM after 4 days by fluorescent confocal microscopy; assay type: functional, tissue-based
[9] = Induction of mouse AV3 cell differentiation into pancreatic lineage assessed as increase in Pdx-1 expression at 300 nM after 6 days by immunohistochemistry pretreated with 1000 ng/ml recombinant mouse Nodal for 5 days (reference value: 4.0+/-1.5%); assay type: functional
HUES8 [10] = assay: Induction of human HUES8 cell differentiation into pancreatic progenitor cell assessed as increase in PTF1A mRNA expression at 300 nM after 4 days by RT-PCR analysis cells pregrown in medium containing Wnt, activin, FGF10, KAAD-cyclopamine and retinoic acid; assay type: functional, cell-based
[11] = Induction of human HUES8 differentiation into pancreatic lineage assessed as increase in amylase/CPA double-positive exocrine cells at 300 nM after 4 days by RT-PCR (Rvb (DMSO) = 0.2+/-0.1%); assay type: functional
[12] = Induction of insulin production in differentiated human HUES8 cells at 300 nM after 4 days by immunocytochemistry (reference value: 0.2+/-0.1%); assay type: functional
[13] = Induction of human HUES9 cell differentiation into pancreatic lineage assessed as increase in Pdx1-expression in cells pregrown with medium containing Wnt, activin, FGF10, KAAD-cyclopamine and retinoic acid at 1 uM after 1 day by Opera high content screening system; assay type: functional
Mus musculus [14] = species on record: Mus musculus; assay: Induction of MYOD expression in CD1 nude mouse mesoderm at 300 nM after 4 days by fluorescent confocal microscopy; assay type: functional
[15] = Induction of human HUES8 cell differentiation into pancreatic progenitor cell assessed as NKX6.1 expression in cells pregrown in medium containing Wnt, activin, FGF10, KAAD-cyclopamine and retinoic acid at 300 nM after 4 days by immunocytochemistry relative to control; assay type: functional
AV3 = assay: Induction of mouse AV3 cell differentiation into pancreatic lineage assessed as increase in cdcp1 mRNA expression at 300 nM after 6 days by RT-PCR analysis pretreated with 1000 ng/ml recombinant mouse Nodal for 5 days; assay type: functional, cell-based
[16] = Cytotoxicity against human HUES9 cells at 300 nM; assay type: cell-based; conditions: hues9, 0.3 µM
Liver = assay: Induction of AFP expression in CD1 nude mouse liver at 300 nM after 4 days by fluorescent confocal microscopy; assay type: functional, tissue-based
[17] = Inhibition of PKC signaling in human HUES8 cells assessed as decrease in Pdx1-expressing cells at 1 uM after 4 days cells pregrown in medium with Wnt3a, activin A, FGF10, KAAD-cyclopamine and retinoic acid in presence of 1 uM BISI by immunocytochemistry (reference value: 26.9+/-2.8%); assay type: cell-based
Homo sapiens [18] = species on record: Homo sapiens; assay: Effect on human HUES8 differentiation into neuronal lineage assessed as c-peptide/GFAP double positive cells at 300 nM after 4 days by immunocytochemistry; assay type: functional
HUES8 [19] = assay: Induction of human HUES8 cell differentiation into pancreatic progenitor cell assessed as increase in HB9 mRNA expression at 300 nM after 4 days by RT-PCR analysis pregrown in medium containing Wnt, activin, FGF10, KAAD-cyclopamine and retinoic acid; assay type: functional, cell-based
Homo sapiens [20] = species on record: Homo sapiens; assay: Induction of human HUES8 differentiation into definitive endoderm assessed as expression of SOX17 at 300 nM after 3 days by immunocytochemistry; assay type: functional
Homo sapiens [21] = species on record: Homo sapiens; assay: Induction of C-peptide expression in human HUES8 insulin-producing cells at 300 nM after 4 days by immunocytochemistry relative to control; assay type: functional
[22] = Induction of human HUES8 differentiation into pancreatic lineage assessed as increase in amylase/CPA double-positive exocrine cells at 300 nM after 4 days by RT-PCR (reference value: 1.6+/-0.2%); assay type: functional
Mus musculus [23] = species on record: Mus musculus; assay: Induction of SOX1 expression in CD1 nude mouse ectoderm at 300 nM after 4 days by fluorescent confocal microscopy; assay type: functional, tissue-based
Heart = assay: Induction of ISL1 expression in CD1 nude mouse heart at 300 nM after 4 days by fluorescent confocal microscopy; assay type: functional, tissue-based
Homo sapiens [24] = species on record: Homo sapiens; assay: Effect on human HUES8 differentiation into neuronal lineage assessed as c-peptide/betaIIItubulin double positive cells at 300 nM after 4 days by immunocytochemistry; assay type: functional, cell-based
HUES8 [25] = assay: Induction of human HUES8 cell differentiation into pancreatic progenitor cell assessed as increase in NGN3 mRNA expression at 300 nM after 4 days by RT-PCR analysis cells pregrown in medium containing Wnt, activin, FGF10, KAAD-cyclopamine and retinoic acid; assay type: functional, cell-based
HUES8 [26] = assay: Induction of human HUES8 cell differentiation into pancreatic progenitor cell assessed as increase in NKX6.1 mRNA expression at 300 nM after 4 days by RT-PCR analysis cells pregrown in medium containing Wnt, activin, FGF10, KAAD-cyclopamine and retinoic acid; assay type: functional, cell-based
Lung = assay: Induction of SOX2 expression in CD1 nude mouse lung at 300 nM after 4 days by fluorescent confocal microscopy; assay type: functional, tissue-based

## CC(C)[C@H]1C(=O)N[C@H](CO)Cc2c[nH]c3cccc(c23)N1C [INDOLACTUM]
[1]
  inhibition: 1.2%
[2]
  EC50: 0.142 µM
[3]
  Activity: 19.5%
HUES8 [4]
  Activity: Active
Homo sapiens [5]
  Activity: inactive
[6]
  Activity: 3.6%
Mus musculus [7]
  Activity: Active
Homo sapiens [8]
  Activity: Active
HUES2
  Activity: Active
Intestine
  Activity: inactive
[9]
  Activity: 50%
HUES8 [10]
  Activity: Active
[11]
  Activity: 22.7%
[12]
  Activity: 0.5%
[13]
  Activity: 5.3%
Mus musculus [14]
  Activity: inactive
[15]
  Activity: 83.5%
AV3
  Activity: Active
[16]
  Activity: Non-toxic
Liver
  Activity: inactive
[17]
  inhibition: 0.6%
Homo sapiens [18]
  Activity: inactive
HUES8 [19]
  Activity: Active
Homo sapiens [20]
  Activity: inactive
Homo sapiens [21]
  Activity: Active
[22]
  Activity: 22.7%
Mus musculus [23]
  Activity: inactive
Heart
  Activity: inactive
Homo sapiens [24]
  Activity: inactive
HUES8 [25]
  Activity: Active
HUES8 [26]
  Activity: Active
Lung
  Activity: inactive
